# Data published in the NIST ThermoML archive (doi:10.1016/j.tca.2013.05.015).
# ± gives the expanded uncertainty stated by the source.
# Conditions: 101.33 kPa, Liquid; for speed of sound: Sing-around technique in a fixed-path interferometer; for mass density: Vibrating tube method
speed of sound (298.15 K) [m/s],mass density (298.15 K) [kg/m3],speed of sound (303.15 K) [m/s],mass density (303.15 K) [kg/m3],speed of sound (308.15 K) [m/s],mass density (308.15 K) [kg/m3],speed of sound (313.15 K) [m/s],mass density (313.15 K) [kg/m3],SMILES
1141 ± 10,894.4 ± 2,1118 ± 10,888.5 ± 2,1096 ± 10,882.7 ± 2,1073 ± 10,876.3 ± 2,CCOC(C)=O [ethyl acetate]
1149 ± 10,785.7 ± 2,1128 ± 10,782 ± 2,1098 ± 10,777.7 ± 2,1086 ± 10,773.6 ± 2,CCO [ethanol]
